Experimental data published in paper PMC8138767, “Intrinsically disordered substrates dictate SPOP subnuclear localization and ubiquitination activity” (The Journal of Biological Chemistry, 2021).
Where no end group is shown, it is not given here.

Tests used:
[1] = biological target: T1, SPOP–MATH (residues 28–166) (Homo sapiens, UniProt O43791); experiment: Competition fluorescence anisotropy, displacement of f-Puc from SPOP–MATH; assay type: binding; details: competition FA; 40 nM f-Puc, 6 μM SPOP–MATH; 50 mM sodium phosphate pH 6.5, 50 mM NaCl, 5 mM DTT, 1% BSA, 0.01% Triton X-100; complete competitive binding model; ± standard deviation of three independent replicates (Table S4)
T1 construct: glutathione S-transferase (GST) (N, cleaved yes); 6X His (N, cleaved yes); made in house; host or cells: E. coli BL-21(DE3)
Text: An Escherichia coli codon-optimized DNA sequence encoding amino acids 205 to 283 of the human Pdx1 sequence (Pdx1-C) in the multiple cloning site of pET49b(+) was purchased from GeneArt (Thermo Fisher). The pET49b(+) backbone encodes for N-terminal glutathione S-transferase and 6X His tags, followed by a 3C protease recognition motif. In all experiments described herein, a mutant containing an exogenous tryptophan at the N terminus of the human Pdx1-C sequence was used for the purposes of quantitation. Mutations in Pdx1-C were generated by Q5 site-directed mutagenesis (New England Biolabs) with primers designed on NEBbasechanger.com according to the manufacturer protocol. Similarly, an E. coli–optimized DNA sequence encoding residues 28 to 166 of human SPOP (SPOP–MATH) was purchased in pET49b(+) from GeneArt. […] A plasmid encoding His–SUMO–SPOP human residues 28 to 359 harboring a tobacco etch virus protease recognition site directly N terminal to the beginning of the native SPOP protein sequence was generated previously ([21]).
All FA experiments were conducted in 50 mM sodium phosphate, pH 6.5, 50 mM sodium chloride, 5 mM DTT, 1% BSA, and 0.01% Triton X-100. In all experiments, the source of fluorescence signal was f-Puc purchased from GenScript, at a final concentration of 40 nM. For direct FA measurements, SPOP–MATH or SPOP28–359 of concentrations between 0.001 and 300 μM was added to wells of 96- or 384-well plates containing f-Puc and buffer. For competition-mode experiments, serial dilutions of each competitor (Pdx1 peptide or recombinant protein) were prepared ranging from ∼0.01 μM to ∼2 mM (concentration range varied based on peptide solubility) in wells of 96- or 384-well plates containing 40 nM f-Puc and 6 μM SPOP–MATH or SPOP28–359. The fluorescence polarization of each well was measured (from which FA was calculated) using either a TECAN Infinite M1000 Pro or BioTek Synergy 4 fluorometer. All experiments were performed with at least three technical replicates. FA data points were fit to a complete competitive binding model ([23]) to determine dissociation constants using in-house Python scripts (see Quantification and statistical analysis).
All titrations were performed in triplicate for rigor. Direct FA titrations were performed to determine the dissociation constants of the fluorescent probe toward SPOP constructs. Direct titration data were fit according to equation 6 in ([54]). Competition mode titration data were fit according to the fitting function in ([23]). Average dissociation constants and standard error from the mean for all constructs from competition experiments may be found in Table S4. The python scripts used in plotting and fitting may be found at https://github.com/idpemery/spop-pdx1.

[2] = test system: SPOP-mediated ubiquitination in T-REx-293 cells; experiment: SPOP-mediated ubiquitination of Pdx1 variants (Ni-NTA pulldown, immunoblot); assay type: cell-based; details: SPOP–myc and GFP–Pdx1 coexpressed 24 h, then 20 μM MG132 or DMSO for 4 h, immunoblot (Fig. 6C)
Experimental: We next sought to determine whether SPOP-driven ubiquitination of Pdx1 could occur outside of previously implicated droplets. Given the SPOP relocalization phenotype that we observe in cells that express SPOP and Pdx1, we hypothesized that the ubiquitination activity was occurring in the diffuse nucleoplasm and that optimal activity requires both SB sites. To test this hypothesis, we performed in cell ubiquitination assays with GFP–Pdx1 variants. SPOP–myc and GFP–Pdx1 were coexpressed for 24 h in T-REx-293 cells, followed by a 4-h treatment with 20 μM MG132 or dimethyl sulfoxide. Proteins modified with His-ubiquitin were enriched by pulldown on nickel-nitrilotriacetic acid (Ni-NTA) resin.
(§1) A plasmid encoding full-length human Pdx1 (amino acids 1-283) in pcDNA3.1 with a C-terminal GFP tag was purchased from GenScript. Full-length mouse SPOP (identical to the human sequence) with a V5 epitope tag in pcDNA3 was generated previously ([21]). The coding sequence for full-length mouse SPOP was inserted into pcDNA4/TO/myc (Invitrogen) for the T-REx system. pcDNA3-myc-CUL3 (cat no. 19893) and pcDNA–HA2–ROC1 (Rbx1) (cat no. 19897) were obtained from Addgene. pcDNA3 containing His-ubiquitin was a gift from Wenyi Wei.
Ubiquitination and Western blots
(§2) T-REx-293 cells (Invitrogen) were seeded at a density of 0.8 × 10^6 per well in 6-well plates (tissue culture–treated plates (cat. no 3516, Corning)). After 24 h, cells were transfected with plasmids encoding Pdx1–GFP, SPOP–myc, His–ubiquitin, HA–Rbx1, and myc–CUL3 (as indicated) using the Qiagen Effectene transfection reagent. 24 h after transfection, the cells were treated with either dimethyl sulfoxide or 20 μM MG132 for 4 h before being harvested. Cells were lysed in buffer A (6 M guanidine HCl, 100 mM sodium phosphate, pH 8.0, and 10 mM imidazole). The lysates were sonicated, cleared, and incubated with Ni-NTA Agarose (Qiagen) for 3 h at RT, followed by 16 h at 4 °C. The beads were washed twice with buffer A and twice with a buffer composed of 1:3 buffer A:buffer T1 (buffer T1: 25 mM Tris HCl, pH 8.0, and 20 mM imidazole). The beads were finally transferred to buffer T1 and then boiled in the SDS-PAGE loading buffer containing 300 mM imidazole. Pdx1 stability assays were performed as described above, except that the cells were not treated with MG132. Cells expressing Pdx1–GFP or a variant were harvested 28 h after transfection, resuspended in 2x SDS-loading dye, and boiled for 5 min before SDS-PAGE analysis.
(§3) All proteins were resolved by SDS-PAGE. Separated proteins were analyzed by immunoblotting using either the ECL or the ECL Select Western blotting detection reagents (Amersham). The antibodies used were mouse anti-Pdx1 used at 1:500 for pulldown or 1:2000 for inputs (clone 26771, MAB2419, R&D Systems), mouse anti-myc (1:250, clone 9E10, Santa Cruz Biotechnology), and rabbit anti-GAPDH (1:8000, clone EPR1689, Abcam). horseradish peroxidase-conjugated secondary antibodies were sourced from Jackson ImmunoResearch Laboratories and used at 1:20,000 dilution (goat anti-rabbit IgG, 111-035-003 and goat anti-mouse, 115-035-003).

[3] = test system: SPOP-dependent turnover in T-REx-293 cells; experiment: SPOP-dependent Pdx1 stability (Western blot); assay type: cell-based; details: no MG132, harvested 28 h after transfection, Western blot (Fig. S3D)
Experimental: In a similar experiment, the cells were not treated with a proteasome inhibitor to observe the SPOP-dependent stability of each Pdx1 variant.
as §2, §3

[4] = test system: V5-SPOP in HeLa cells; experiment: Immunofluorescence: V5-SPOP localization on coexpression of GFP–Pdx1 variants; assay type: cell-based; details: coexpressed with V5-SPOP, 24 h after transfection, three biological replicates
Experimental: (§4) HeLa cells were cultured under sterile conditions with Dulbecco’s modified Eagle’s medium (DMEM) (Gibco) supplemented with 10% fetal bovine serum and antibiotics/antimycotics (Gibco) (see Table S5 for key reagents and resources). T-REx-293 cells (cat. no. R710-07) were obtained from Invitrogen. Cells were grown on DMEM supplemented with 10% fetal bovine serum (Gibco), GlutaMax (Gibco), and Penicillin-Streptomycin (Gibco) and kept under selection by 5 μg/ml blasticidin. All cells were grown at 37 °C under 5% CO2 and were mycoplasma free at the time the experiments were performed.
as §1
For immunofluorescence experiments, 0.5 × 10^6 cells were seeded on borosilicate glass coverslips in 6-well plates. After 24 h, cells were transfected with 400 ng of each plasmid using the Qiagen Effectene transfection reagent according to the manufacturer protocol. 24 h after transfection, the cells were treated with 4% paraformaldehyde in PBS for 30 min at RT. Cells were permeabilized with 0.1% Triton X-100 in PBS (PBST) for 5 min at 21 °C, followed by blocking in 0.5% BSA in PBST for 1 h at 21 °C. Signal from GFP-tagged proteins was observed directly. Cells were stained in primary antibodies diluted in 0.5% BSA in PBST overnight at 4 °C with mouse anti-SC-35 (1:300, ab11826; Abcam) and chicken anti-V5 (1:300, NB600-379; Novus Biologicals). Cells were incubated with secondary antibodies for 2 h at 21 °C. The secondary antibodies used were goat anti-mouse Alexa Fluor 647 (1:250, A-21235; Thermo Fisher) and goat anti-chicken Alexa Fluor 555 (1:250, A-21437; Thermo Fisher). Cells on coverslips were treated with 300 nM 4′,6-diamidino-2-phenylindole (DAPI) for 5 min at 21 °C. Coverslips were mounted on glass slides with ProLong Diamond mounting reagent (Thermo Fisher) and cured before imaging on a Zeiss LSM 880 Upright microscope. All images were analyzed and prepared in Fiji ([53]).
All immunofluorescence data were averaged over three biological replicates. Cells not expressing both Pdx1 and SPOP were excluded from sampling. Raw images were collected in the Zeiss Zen software and then exported for viewing and analysis in Fiji. Nuclei of individual cells were designated manually in Fiji using the DAPI channel as a guide. The cells were binned based on whether SPOP was localized to nuclear speckles (puncta); cells with both diffuse and punctate SPOP signal were binned as “speckled.” The grayscale signal intensity of the green channel (Pdx1–GFP) was averaged over the DAPI-designated nuclear area. Next, the raw GFP intensity data points (one data point per cell analyzed) were plotted to generate a violin plot distribution. The average, minimum, and maximum values are shown by horizontal lines on the plot. Individual data points are also shown for rigor. […] All plotting and statistical tests were performed using in-house python scripts that can be found at https://github.com/idpemery/spop-pdx1.

[5] = test system: HeLa cells; experiment: Immunofluorescence: subcellular localization / phase separation of the protein itself; assay type: cell-based; details: SC-35 nuclear speckle marker
Experimental: as §4, §1
For immunofluorescence experiments, 0.5 × 10^6 cells were seeded on borosilicate glass coverslips in 6-well plates. After 24 h, cells were transfected with 400 ng of each plasmid using the Qiagen Effectene transfection reagent according to the manufacturer protocol. 24 h after transfection, the cells were treated with 4% paraformaldehyde in PBS for 30 min at RT. Cells were permeabilized with 0.1% Triton X-100 in PBS (PBST) for 5 min at 21 °C, followed by blocking in 0.5% BSA in PBST for 1 h at 21 °C. Signal from GFP-tagged proteins was observed directly. […] All images were analyzed and prepared in Fiji ([53]).
All immunofluorescence data were averaged over three biological replicates. […] Next, the raw GFP intensity data points (one data point per cell analyzed) were plotted to generate a violin plot distribution. […]

[6] = biological target: T2, SPOP-MATH (human SPOP residues 28-166) (human, UniProt O43791 28-166); experiment: fluorescence polarisation; competition fluorescence anisotropy: competitor (~0.01 μM to ~2 mM) displaces 40 nM f-Puc from 6 μM SPOP-MATH or SPOP28-359; complete competitive binding fit; 50 mM sodium phosphate pH 6.5, 50 mM NaCl, 5 mM DTT, 1% BSA, 0.01% Triton X-100; details: both partners purified
T2 construct: N-terminal Gly-Pro-Gly cloning artefact left after 3C protease; speckle-type POZ protein (SPOP), human, MATH domain, residues 28-166; uniformly 15N-labelled for the NMR experiments; also called 15N-SPOP-MATH; source: E. coli BL-21(DE3), purified (Ni-NTA, 3C protease, second Ni-NTA, Sephacryl S100); not shown: GST, N-terminal, cleaved; His6, N-terminal, cleaved
T2 sequence (O43791 other isoform, or with tags, fused parts or gaps): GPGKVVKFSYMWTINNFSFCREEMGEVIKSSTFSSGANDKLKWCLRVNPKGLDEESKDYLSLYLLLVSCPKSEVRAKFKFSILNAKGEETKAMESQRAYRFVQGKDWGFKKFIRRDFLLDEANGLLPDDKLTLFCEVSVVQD

Ac-LSASPQPSSVAPRRPQEPR [Pdx1–SBM2]
Kd [1]: > 600 µM

Ac-GSSSEADEMAKALEAELNDLM [Mock (Fcp1), mock peptide, residues 941-961, negative control, reference compound]
KD (binding to SPOP-MATH) [1]: no binding

GFP–Pdx1–ΔSBM1: GFP–Pdx1 with deletion of the higher-affinity SBM1 (residues 224–236)
ubiquitination of Pdx1 variant [2]: impedes ubiquitination, as shown by no shift from the unmodified band | ubiquitination of Pdx1 variant ([2]; listed as Pdx1 lacking SBM1): not observably ubiquitinated | SPOP-dependent Pdx1 stability [3]: more stable relative to the WT protein | SPOP relocalization from nuclear speckles by Pdx1 variant [4]: all cells, regardless of GFP–Pdx1–ΔSBM1 levels, contain punctate V5-SPOP

B1: V5-SPOP: full-length mouse SPOP (identical to the human sequence) with a V5 epitope tag (protein, UniProt Q6ZWS8 1-374, looked up)
chain: MSRVPSPPPPAEMSSGPVAESWCYTQIKVVKFSYMWTINNFSFCREEMGEVIKSSTFSSGANDKLKWCLRVNPKGLDEESKDYLSLYLLLVSCPKSEVRAKFKFSILNAKGEETKAMESQRAYRFVQGKDWGFKKFIRRDFLLDEANGLLPDDKLTLFCEVSVVQDSVNISGQNTMNMVKVPECRLADELGGLWENSRFTDCCLCVAGQEFQAHKAILAARSPVFSAMFEHEMEESKKNRVEINDVEPEVFKEMMCFIYTGKAPNLDKMADDLLAAADKYALERLKVMCEDALCSNLSVENAAEILILADLHSADQLKTQAVDFINYHASDVLETSGWKSMVVSHPHLVAEAYRSLASAQCPFLGPPRKRLKQS
modifications: full-length V5 tag
V5-SPOP localization when expressed alone [5]: localizes to nuclear speckles

B2: W131G: substrate binding-impaired SPOP mutant (protein, UniProt O43791 1-374, looked up, variant W131G)
Speckle-type POZ protein: MSRVPSPPPPAEMSSGPVAESWCYTQIKVVKFSYMWTINNFSFCREEMGEVIKSSTFSSGANDKLKWCLRVNPKGLDEESKDYLSLYLLLVSCPKSEVRAKFKFSILNAKGEETKAMESQRAYRFVQGKDGGFKKFIRRDFLLDEANGLLPDDKLTLFCEVSVVQDSVNISGQNTMNMVKVPECRLADELGGLWENSRFTDCCLCVAGQEFQAHKAILAARSPVFSAMFEHEMEESKKNRVEINDVEPEVFKEMMCFIYTGKAPNLDKMADDLLAAADKYALERLKVMCEDALCSNLSVENAAEILILADLHSADQLKTQAVDFINYHASDVLETSGWKSMVVSHPHLVAEAYRSLASAQCPFLGPPRKRLKQS
modifications: V5 tag
ubiquitination of Pdx1 variant [2]: lack of any shift of the Pdx1 band

B3: Pdx1-SBM2 peptide (human Pdx1 residues 265-283) (peptide)
peptide: Ac-LSASPQPSSVAPRRPQEPR
notes: pancreatic and duodenal homeobox 1 (Pdx1), human, residues 265-283; also called Pdx1 265-283; source: synthetic peptide (Tufts University Core Facility, HPLC purified)
Kd [6]: 630 µM
